For assay [1], the system named is human mast cell line HMC-1. The experiment in a line: Mast cell degranulation in vitro: histamine concentration in culture medium by sandwich-ELISA. The following applies: for inhibition of cholinergic agonist-induced mast cell degranulation (histamine concentration in culture supernatant): neramexane 10E-6M to 10E-16M added 5 minutes prior to cholinergic stimulus, histamine determined 10 minutes after addition; for responsiveness of HMC-1 cells (degranulation) at low calcium: low calcium concentration; for induction of mast cell degranulation (histamine concentration in culture supernatant): calcium concentration elevated to 1 mM, histamine 10 minutes after addition. In kind it is cell-based. As to the method: The human mast cell line HMC-1 is obtained from J. H. Butterfield (Minnesota, USA) and cultured under standard conditions in RPMI Medium 1640 (GIBCO, Karlsruhe, Germany) at 37° C. For functional assays, the calcium concentration of the medium is adjusted to 1 mM.
The Mast cell degranulation is monitored by determination of histamine concentration in the culture medium using a sandwich-ELISA from IBL (Hamburg, Germany).Histamine concentration is determined in untreated cells, medium without cells, HMC-1 cells treated with calcimycin, (a calcium ionophore,used as positive control). Additional controls to check reagibilty of the cells are LPS (lipopolysaccharide) and PMA (phorbol 12-myristate 13-acetate). Histamine concentration is determined 10 minutes after addition of the respective substances. Nicotine and choline are used as stimulus for nAChR, muscarine as stimulus for mAChR, and a combination of acetylcholine and eserine (an acetylcholinesterase inhibitor) is used as pancholinergic stimulus. Neramexane is tested at concentrations ranging from 10E-6M to 10E-16M and is added to the culture medium 5 minutes prior to the respective cholinergic stimulus. All experiments are performed twice in quadruplicate.
Statistical analysis is performed using the Wilcoxon sum-of-ranks test (available on www.statpages.net).
In order to determine the sensitivity of mast cells towards cholinergic signals, the HMC-1 cell line cultured under standard conditions with either low or high calcium concentrations is used.
Background: ELISA stands for enzyme-linked immunosorbent assay.

In assay [2] the target is α9α10 nicotinic Acetylcholine Receptor (Rattus norvegicus, UniProt P43144+Q9JLB5). The following applies: cited from earlier work.
Setting [3] is: neramexane at concentrations higher than 1 mM.

Data on five compounds can be found in US8680149B2, “1-amino-alkylcyclohexane derivatives for the treatment of mast cell mediated diseases” (Merz Pharma GmbH & Co. KGaA, priority 2008, dated 2014).

Molecules are shown by their SMILES.

α9α10 nicotinic Acetylcholine Receptor, sequence (P43144 26-479): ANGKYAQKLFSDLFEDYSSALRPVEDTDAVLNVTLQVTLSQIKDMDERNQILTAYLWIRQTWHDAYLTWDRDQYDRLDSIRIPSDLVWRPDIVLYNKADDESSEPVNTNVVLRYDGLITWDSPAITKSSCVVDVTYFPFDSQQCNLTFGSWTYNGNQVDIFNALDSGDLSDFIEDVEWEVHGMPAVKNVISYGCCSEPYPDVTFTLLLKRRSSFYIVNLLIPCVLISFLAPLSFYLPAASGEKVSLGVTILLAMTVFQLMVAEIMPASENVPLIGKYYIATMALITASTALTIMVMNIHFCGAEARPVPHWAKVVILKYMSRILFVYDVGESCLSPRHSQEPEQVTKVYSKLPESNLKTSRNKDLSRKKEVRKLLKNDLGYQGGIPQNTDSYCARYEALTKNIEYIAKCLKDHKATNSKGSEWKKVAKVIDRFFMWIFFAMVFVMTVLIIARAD
α9α10 nicotinic Acetylcholine Receptor, sequence (Q9JLB5 25-447): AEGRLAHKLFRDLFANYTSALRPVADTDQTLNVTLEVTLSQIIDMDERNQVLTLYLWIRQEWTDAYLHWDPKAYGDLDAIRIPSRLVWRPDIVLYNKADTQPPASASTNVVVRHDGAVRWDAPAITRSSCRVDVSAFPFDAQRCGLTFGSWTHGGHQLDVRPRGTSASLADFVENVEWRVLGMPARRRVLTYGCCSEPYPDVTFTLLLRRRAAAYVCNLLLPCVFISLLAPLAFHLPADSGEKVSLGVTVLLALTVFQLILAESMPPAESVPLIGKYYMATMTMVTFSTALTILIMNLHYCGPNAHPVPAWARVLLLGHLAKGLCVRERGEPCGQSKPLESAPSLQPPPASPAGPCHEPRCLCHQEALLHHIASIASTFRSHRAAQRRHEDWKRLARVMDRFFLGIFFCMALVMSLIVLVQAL

For `CC1(C)CC(C)(C)CC(C)(N)C1` [Neramexane, 1-amino-1,3,3,5,5-pentamethylcyclohexane], the “inhibition of cholinergic agonist-induced mast cell degranulation (histamine concentration in culture supernatant)” value in assay [1] (HMC-1 cells, calcium 1 mM) is “dose-dependent inhibitory effect”. In assay [2], the “blockade of α9α10 nicotinic Acetylcholine Receptor” value is given as “blocker” and the “mode of antagonism at α9α10 nicotinic Acetylcholine Receptor” value was “non-competitive antagonist”. Besides, in assay [2] (setting [3]), the “dependence of blockage on membrane potential” value is given as “only slightly dependent on the membrane potential” and the “effect on rate of desensitization” value is “not to modify the rate of desensitization”.

For `CNc1ccc2oc(C[C@H]3O[C@@]4(CC[C@H]3C)O[C@H]([C@H](C)C(=O)c3ccc[nH]3)[C@H](C)C[C@H]4C)nc2c1C(=O)O` [calcimycine, calcimycin], the “responsiveness of HMC-1 cells (degranulation) at low calcium” value in assay [1] was “unresponsive”.

With `CC1(C)CC(C)(C)CC(C)(N)C1.CS(=O)(=O)O` [Neramexane-mesylate], the “inhibition of cholinergic agonist-induced mast cell degranulation (histamine concentration in culture supernatant)” value in assay [1] (HMC-1 cells, calcium 1 mM) is given as “inhibits the observed effects in equimolar concentrations and, dose-dependently, even in lower concentrations than the respective agonist”.

`C[C@@H]1O[C@H](C[N+](C)(C)C)C[C@H]1O` [muscarine]: in assay [1] (HMC-1 cells), the “induction of mast cell degranulation (histamine concentration in culture supernatant)” value is on record as “No histamine liberation”.

As to `CN1CCCC1c1cccnc1` (centres unmarked) [nicotine], in assay [1] (HMC-1 cells, calcium 1 mM), the “concentration sufficient to induce complete degranulation” value is given as “Nanomolar concentrations”. Also, the “induction of mast cell degranulation (histamine concentration in culture supernatant)” value in assay [1] (HMC-1 cells) is on record as “dose-dependently produce mast cell degranulation”. The “responsiveness of HMC-1 cells (degranulation) at low calcium” value in assay [1] was “unresponsive”.
